In brackets after ≈: the same amount, converted by molar mass. Several values for one entry are separate records, joined by “and”; a condition that tells them apart may be missing. Equal values may be shown once.
Experiments:
[1] = system: lipid oxidation stimulated by iron (II) ions in rat brain homogenate; assay: Antioxidant activity: MDA from iron(II)-stimulated lipid oxidation in brain homogenate; assay type: biochemical; conditions: 10 μM compound; for MDA: 0.1% FeCl2 and 1 mM ascorbic acid, 1 h 37 °C; for Antioxidative Potential Value: reduction of MDA vs control sample
Description: The antioxidant potential of the newly synthesized derivatives was assessed based on the analysis of the malondialdehyde (MDA) concentration formed as a product of lipid oxidation stimulated by iron (II) ions.
The antioxidant activity of the tested compounds was measured in the brain homogenate of intact rats bred at the Central Laboratory of Experimental Animals of the Medical University of Warsaw. Brains were collected according to procedure no. 3R. A 10% (m/v) rat brain solution was obtained by homogenizing freshly prepared brain washed with cold 0.9% NaCl in cold 10 mM TRIS-HCl buffer, with pH = 7.5. The homogenate was centrifuged at 4 °C (2000 rpm) to obtain supernatant 1 [54, 60]. Sample preparation was as follows: 100 μM stock solutions of test compounds in DMSO were added to […] of supernatant 1 to a final concentration of 10 μM. The reference sample contained brain homogenate supernatant and DMSO.
Freshly prepared solutions of 0.1% FeCl2 (0.2 mL) and 1 mM ascorbic acid (0.4 mL) were added to all samples to initiate the oxidation reaction. Samples were incubated for 1 h at 37 °C. Then, 8.1% sodium dodecyl sulfate (SDS) solution was added to inhibit the oxidation reaction. Acetate buffer (pH = 3.4) and 0.8% thiobarbituric acid (TBA) solution (pH = 6) were added to each sample to determine the concentration of malondialdehyde (MDA). The samples were incubated for 1 h at 100 °C, then cooled on ice and centrifuged (10 min, 4000 rpm). The absorbance was measured at a wavelength of 532 nm against a blank sample (acetate buffer with TBA solution).
Calculation of malondialdehyde (MDA) concentration was performed as follows: MDA concetration=∆ A532 nm×1.56×10^−6 [nmol MDA/h/g tissue]

[2] = system: S. aureus reference strains; assay: Broth microdilution MIC / MBC, summary over S. aureus strains; assay type: cell-based, Staphylococcus aureus
Description: The microdilution method was used to determine the MIC values of newly synthesized compounds. The antimicrobial activity of the thiosemicarbazides series was tested on ten reference bacterial strains purchased from the American Type Culture Collection (ATCC). Seven Gram-positive reference strains (S. aureus ATCC 29213, S. aureus ATCC 43300, S. aureus ATCC 6538, S. aureus ATCC 25923, S. epidermidis ATCC 12228, M. luteus ATCC 10240, and B. cereus ATCC 10876) and three Gram-negative reference bacteria (K. pneumoniae ATCC 13883, E. coli ATCC 25922, S. typhimurium ATCC 14028) were used. […]
A 96-well microtiter plate and microbroth two-fold dilution method was used to determine the minimum inhibitory concentration (MIC) according to the EUCAST (European Committee on Antimicrobial Susceptibility Testing) reference recommendation. […] After incubation, the growth of bacteria was monitored by a Biotek ELx800 (Biokom, Janki, Poland) spectrophotometer at 600 nm (OD600). […]
The in vitro antimicrobial activity of the tested compounds was determined by the MIC, which was defined as the lowest concentration of the compound tested at which no visible growth of the test bacteria was observed. […] MBC was determined after the broth dilution period of an MIC test has been completed. […] The MBC values were determined by observing the first clear area on the agar plate that has no observable bacterial growth.

Rhabditis sp. = assay: Anthelmintic activity assay on nematode culture; assay type: cell-based; conditions: 24 h exposure
Description: All compounds in the anthelmintic activity study were prepared in the form of a homogeneous suspension. The anthelmintic activity was tested according to the procedure developed by Bogucka-Kock and Kołodziej. The tested compounds were added to the culture of Rhabditis sp. at experimentally determined concentrations. […] LC50 values (lethal concentration) were determined for two active substances. It was defined as the amount of the substance causing the death of 50% of nematodes.

[3] = system: Staphylococcus aureus ATCC 43300; assay: Broth microdilution MIC / MBC; assay type: cell-based; conditions: S. aureus ATCC 43300 (MRSA); for MBC: read-out: MBC; for MIC: read-out: MIC
Description: (§1) The microdilution method was used to determine the MIC values of newly synthesized compounds. The antimicrobial activity of the thiosemicarbazides series was tested on ten reference bacterial strains purchased from the American Type Culture Collection (ATCC). Seven Gram-positive reference strains (S. aureus ATCC 29213, S. aureus ATCC 43300, S. aureus ATCC 6538, S. aureus ATCC 25923, S. epidermidis ATCC 12228, M. luteus ATCC 10240, and B. cereus ATCC 10876) and three Gram-negative reference bacteria (K. pneumoniae ATCC 13883, E. coli ATCC 25922, S. typhimurium ATCC 14028) were used. These bacterial strains are representatives of microorganisms that can cause the most common opportunistic infections among humans. The bacteria were grown on Mueller–Hinton agar (MHA) plates before examination. To perform the assay, all bacteria were placed in sterile saline (0.85% NaCl) to obtain a suspension of the optical density of the 0.5 McFarland standard (1.50 × 10^8 colony-forming units (CFUs)/mL). A solution of the tested compounds was prepared in dimethyl sulfoxide (DMSO) at a concentration of 50 mg/mL as a stock solution.
(§2) A 96-well microtiter plate and microbroth two-fold dilution method was used to determine the minimum inhibitory concentration (MIC) according to the EUCAST (European Committee on Antimicrobial Susceptibility Testing) reference recommendation. The solutions were then diluted with Mueller–Hinton broth (MHB, Biomaxima, Lublin, Poland) medium to obtain a solution with a basic concentration of 1000 µg/mL. Then, using the two-fold dilution method with MHB, the tested compounds were introduced into the wells of the microplate to provide a final concentration in the range of 0.49 to 1000 µg/mL. Then, 2 μL of bacterial inoculum with a density of 0.5 McFarland standard was added into each well. Each well was filled with a total volume of 100 μL. Then, microtiter plates were incubated for 18 ± 2 h at 35 °C. After incubation, the growth of bacteria was monitored by a Biotek ELx800 (Biokom, Janki, Poland) spectrophotometer at 600 nm (OD600). The MIC assays were performed in triplicate.
(§3) A negative control with MHB and without tested compounds was used. Clinically used anti-bacterial agents, cefuroxime and vancomycin, were included as positive controls for the purpose of comparison in a concentration range from 0.007 to 15.625 µg/mL.
(§4) The in vitro antimicrobial activity of the tested compounds was determined by the MIC, which was defined as the lowest concentration of the compound tested at which no visible growth of the test bacteria was observed. The MBC (the minimum bactericidal concentration) is defined as the lowest concentration of antimicrobial agent resulting in reduction in the viability of the initial bacterial inoculum by ≥99.9% on the plate. Generally, an MBC/MIC ratio less than 4 is considered bactericidal for an antimicrobial, and an MBC/MIC > 8 is indicative of bacteriostatic activity. For the MBC test, the Mueller–Hinton agar (MHA, Biomaxima, Poland) plate assay was used. MBC was determined after the broth dilution period of an MIC test has been completed. After the MIC detection, 5 µL aliquots from each well were plated on an MHA plate and grown at 35 °C overnight. The MBC values were determined by observing the first clear area on the agar plate that has no observable bacterial growth.

[4] = system: Micrococcus luteus ATCC 10240; assay: Broth microdilution MIC / MBC; assay type: cell-based; conditions: ATCC10240, M. luteus ATCC 10240
Description: as §1, §2, §3, §4

[5] = system: Staphylococcus aureus ATCC 29213; assay: Broth microdilution MIC / MBC; assay type: cell-based; conditions: ATCC29213, S. aureus ATCC 29213
Description: as §1, §2, §3, §4

[6] = system: Staphylococcus aureus ATCC 6538; assay: Broth microdilution MIC / MBC; assay type: cell-based; conditions: ATCC6538, S. aureus ATCC 6538
Description: as §1, §2, §3, §4

[7] = system: Staphylococcus aureus ATCC 25923; assay: Broth microdilution MIC / MBC; assay type: cell-based; conditions: for MBC: ATCC25923, S. aureus ATCC 25923, read-out: MBC; for MIC: ATCC25923, S. aureus ATCC 25923, read-out: MIC
Description: as §1, §2, §3, §4

[8] = system: Staphylococcus epidermidis ATCC 12228; assay: Broth microdilution MIC / MBC; assay type: cell-based; conditions: ATCC12228, S. epidermidis ATCC 12228
Description: as §1, §2, §3, §4

Row | Compound | MDA [1] [mM × 10^−3] | Antioxidative Potential Value [1] | MBC ([2]; Staphylococcus aureus, all tested S. aureus reference strains) [µg/mL] | LC50 (Rhabditis sp.) [µg/mL] | MBC [3] [µg/mL] | MIC [3] [µg/mL] | MBC [4] [µg/mL] | MIC [4] [µg/mL] | MBC [5] [µg/mL] | MIC [5] [µg/mL] | MBC [6] [µg/mL] | MIC [6] [µg/mL] | MBC [7] [µg/mL] | MIC [7] [µg/mL] | MBC [8] [µg/mL] | MIC [8] [µg/mL] | melting point [°C] | MIC range ([2]; S. aureus ATCC 43300 MRSA and all MSSA reference strains) [µg/mL]
1 | O=C(NNC(=S)Nc1cccc(Cl)c1)c1cccc(C(F)(F)F)c1 [Compound 3a, 4-(3-Chlorophenyl)-1-(3-trifluoromethylbenzoyl)thiosemicarbazide] | 1.395 ± 0.232 | 48.3% | 1000 (≈ 2680 µM) | 14800 (≈ 39500 µM) | 1000 (≈ 2680 µM) | 3.9 (≈ 10.4 µM) | 15.6 (≈ 41.8 µM) | 1.95 (≈ 5.22 µM) | 1000 (≈ 2680 µM) | 1.95 (≈ 5.22 µM) | 1000 (≈ 2680 µM) | 1.95 (≈ 5.22 µM) | 1000 (≈ 2680 µM) | 1.95 (≈ 5.22 µM) | 15.6 (≈ 41.8 µM) | 1.95 (≈ 5.22 µM) | – | –
2 | COc1cccc(NC(=S)NNC(=O)c2cccc(C(F)(F)F)c2)c1 [Compound 3b, 1-(3-Trifluoromethylbenzoyl)-4-(3-methoxyphenyl)thiosemicarbazide] | 1.703 ± 0.177 | 36.9% | – | – | – | > 1000 | – | 500 (≈ 1350 µM) | – | > 1000 | – | > 1000 | – | 62.5 (≈ 169 µM) | – | > 1000 | 181.3 | –
3 | FC(F)(F)c1cccc(-c2n[nH]c(=S)n2-c2cccc(Cl)c2)c1 [Compound 4, 4-(3-Chlorophenyl)-5-(3-trifluoromethylphenyl)-2,4-dihydro-3H-1,2,4-triazole-3-thione] | 2.022 ± 0.121 | 25.1% | – | 370 (≈ 1040 µM) | – | > 1000 | – | 1000 (≈ 2810 µM) | – | > 1000 | – | > 1000 | – | 1000 (≈ 2810 µM) | – | 500 (≈ 1410 µM) | – | –
4 | O=C(NNC(=S)Nc1ccccc1)c1cccc(C(F)(F)F)c1 [Compound 3f, 1-(3-Trifluoromethylbenzoyl)-4-(phenyl)thiosemicarbazide] | 1.450 ± 0.006 | 46.3% | – | – | – | > 1000 | – | 1000 (≈ 2950 µM) | – | > 1000 | – | > 1000 | – | 62.5 (≈ 184 µM) | – | 1000 (≈ 2950 µM) | 176.4 | –
5 | O=C(NNC(=S)Nc1cccc(F)c1)c1cccc(C(F)(F)F)c1 [Compound 3e, 1-(3-Trifluoromethylbenzoyl)-4-(3-fluorophenyl)thiosemicarbazide] | 1.274 ± 0.121 | 52.8% | – | – | > 1000 | 31.2 (≈ 87.5 µM) | > 1000 | 15.6 (≈ 43.7 µM) | > 1000 | 15.6 (≈ 43.7 µM) | > 1000 | 15.6 (≈ 43.7 µM) | > 1000 | 31.2 (≈ 87.5 µM) | > 1000 | 31.2 (≈ 87.5 µM) | 174.4 | 15.63 to 31.25
6 | CCCCNC(=S)NNC(=O)c1cccc(C(F)(F)F)c1 [Compound 3c, 4-Butyl-1-(3-trifluoromethylbenzoyl)thiosemicarbazide] | 1.773 ± 0.077 | 34.3% | – | – | – | > 1000 | – | 1000 (≈ 3130 µM) | – | > 1000 | – | > 1000 | – | 250 (≈ 783 µM) | – | 1000 (≈ 3130 µM) | 161.6 | –
7 | Cc1cccc(NC(=S)NNC(=O)c2cccc(C(F)(F)F)c2)c1 [Compound 3d, 1-(3-Trifluoromethylbenzoyl)-4-(3-methylphenyl)thiosemicarbazide] | 1.320 ± 0.143 | 50.1% and 51.1% | – | – | – | > 1000 | – | 1000 (≈ 2830 µM) | – | > 1000 | – | > 1000 | – | 1000 (≈ 2830 µM) | – | 1000 (≈ 2830 µM) | 230.7 | –
